In ChEMBL document CHEMBL3272124, “Synthesis of tetrazole ribonucleosides and their evaluation as antiviral agents. 2. 5-Amino-1-(beta-D-ribofuranosyl)-1H-tetrazole and 5-amino-2-(beta-D-ribofuranosyl)-2H-tetrazole” (J Med Chem, 1976):
Active and inactive are the calls of the source. The calls are words filed in the database; no cut-off is given here.

These compounds were tested on Influenza A virus (assay: Antiviral activity against Influenza A virus A2/Asian/J305 infected in Swiss albino mouse assessed as increase in host survival at 50 mg/kg, ip administered as 7 doses immediately before virus inoculation and at 1, 5, 24, 30, 48 and 72 hrs after virus infection measured on 21st day post-infection).
Assay type: functional, organism-based
Design: dose 50 mg/kg
With NC(=O)c1ncn([C@@H]2O[C@H](CO)[C@@H](O)[C@H]2O)n1 the Activity was “Active”. In the case of Nc1nnn([C@@H]2O[C@H](CO)[C@@H](O)[C@H]2O)n1, the Activity is reported as “inactive”. Nc1nnnn1[C@@H]1O[C@H](CO)[C@@H](O)[C@H]1O was tested, and the Activity was “inactive”.
